Measured values: patent publication EP4562003B1, “NOVEL 7-SUBSTITUTED INDOLE SULFONAMIDE DERIVATIVES” (F. Hoffmann-La Roche AG, priority 2022, dated 2024)

target: human GPR17 short isoform (Homo sapiens, UniProt Q13304); assay: GPR17 cAMP assay (TR-FRET cAMP quantification, antagonist mode); type: cell-based; conditions: CHO-K1 cells stably expressing human GPR17 short isoform; EC80 of agonist MDL29,951; forskolin 15µM; IBMX 0.5mM; 30 minutes at room temperature; read-out: hGPR17 cAMP IC50
Description: GPR17 cAMP Assay Protocol:
CHO-K1 cells stably expressing vector containing untagged human GPR17 short isoform (Roche) were cultured at 37°C / 5% CO2 in DMEM (Dulbecco's Modified Eagle Medium):F-12 (1:1) supplemented with 10% foetal bovine serum and 400 µg/ml Geneticin.
Changes in intracellular cyclic adenosine monophosphate (cAMP) levels were quantified using the Nano-TRF Detection Assay kit (Roche Diagnostics, Cat. No. 05214386001). This assay allows for direct cAMP quantification in a homogeneous solution. cAMP is detected based on time-resolved fluorescence energy transfer (TR-FRET) and competitive binding of ruthenylated cAMP and endogenous cAMP to an anti-cAMP monoclonal antibody labeled with AlexaFluor-700. The Ruthenium complex serves as the FRET donor and transfers energy to AlexaFluor-700. The FRET signal is inversely proportional to the cAMP concentration.
CHO-GPR17S cells were detached with Accutase and resuspended in assay buffer consisting of Hank's Balanced Salt Solution (HBSS), 10mM HEPES (4-(2-hydroxyethyl) piperazine-1-ethanesulfonic acid solution) and 0.1% bovine serum albumin (pH 7.4). The cells were seeded in black 384-well plates (Corning) at a density of 10'000 cells / 20µl assay buffer until the addition of compounds.
Test antagonist compounds were serially diluted in dimethyl sulfoxide (DMSO) and spotted in 384-well plates. The compounds were then diluted in HBSS buffer supplemented with an EC80 concentration of MDL29,951 (3-(2-Carboxy-4,6-dichloroindol-3-yl)propionic acid) (GPR17 agonist) plus 3-Isobutyl-1-methylxanthine (IBMX) (0.5mM final concentration) and added to the cells at room temperature. Forskolin (15µM final concentration) was added 5 minutes after the test compounds and the cells were incubated at room temperature for 30 minutes. The assay was stopped by adding cAMP detection mix (containing detergents for cell lysis) for 90 minutes at room temperature.
Cellular cAMP was measured using a Paradigm reader (Molecular Devices). The raw data was used to calculate the FRET signal based on the assay's P-factor as per cAMP kit instructions. The data was normalized to the maximal activity of a reference antagonist and dose response curves were fitted to the percent activity of the test compounds using a sigmoidal dose response model (Genedata Screener).
Results in the hGPR17 cAMP assay are provided for compounds of formula I in Table 1 Table 1: […]

human GPR17 short isoform, sequence (Q13304 29-367): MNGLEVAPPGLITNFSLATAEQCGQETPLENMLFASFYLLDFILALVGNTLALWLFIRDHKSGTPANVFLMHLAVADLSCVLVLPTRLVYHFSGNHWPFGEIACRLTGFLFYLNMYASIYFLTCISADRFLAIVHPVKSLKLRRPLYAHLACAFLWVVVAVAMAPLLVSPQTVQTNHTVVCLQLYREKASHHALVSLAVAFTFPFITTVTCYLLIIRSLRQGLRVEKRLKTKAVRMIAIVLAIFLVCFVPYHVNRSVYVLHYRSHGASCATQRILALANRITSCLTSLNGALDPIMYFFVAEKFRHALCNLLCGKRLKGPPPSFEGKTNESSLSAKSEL

Row | Structure (SMILES) | IC50 [nM]
1 | COc1nc(NS(=O)(=O)c2c[nH]c3c(-c4cnn(C)n4)c(Cl)ccc23)nc(OC)c1OCCF [Example 109, 6-chloro-N-[5-(2-fluoroethoxy)-4,6-dimethoxy-pyrimidin-2-yl]-7-(2-methyltriazol-4-yl)-1H-indole-3-sulfonamide] | 36
2 | COc1nc(NS(=O)(=O)c2c[nH]c3c(-c4cncnc4)c(Cl)ccc23)nc(OC)c1OCC(F)F [Example 89, 6-chloro-N-[5-(2,2-difluoroethoxy)-4,6-dimethoxy-pyrimidin-2-yl]-7-(5-pyrimidyl)-1H-indole-3-sulfonamide] | 42
3 | COc1nc(NS(=O)(=O)c2c[nH]c3c(-c4cnn(C)c4)c(Cl)ccc23)nc(OC)c1OCC(F)F [Example 111, 6-chloro-N-[5-(2,2-difluoroethoxy)-4,6-dimethoxy-pyrimidin-2-yl]-7-(1-methylpyrazol-4-yl)-1H-indole-3-sulfonamide] | 53
4 | COc1nc(NS(=O)(=O)c2c[nH]c3c(-c4cccc(C)n4)c(Cl)ccc23)nc(OC)c1OC(F)F [Example 94, 6-chloro-N-[5-(difluoromethoxy)-4,6-dimethoxy-pyrimidin-2-yl]-7-(6-methyl-2-pyridyl)-1H-indole-3-sulfonamide] | 20
5 | COc1nc(NS(=O)(=O)c2c[nH]c3c(-c4cncc(C)n4)c(Cl)ccc23)nc(OC)c1CC(F)F [Example 86, 6-chloro-N-[5-(2,2-difluoroethyl)-4,6-dimethoxy-pyrimidin-2-yl]-7-(6-methylpyrazin-2-yl)-1H-indole-3-sulfonamide] | 29
6 | COc1nc(NS(=O)(=O)c2c[nH]c3c(-c4nccn4C)cccc23)nc(OC)c1OCC(F)F [Example 7, N-[5-(2,2-difluoroethoxy)-4,6-dimethoxy-pyrimidin-2-yl]-7-(1-methylimidazol-2-yl)-1H-indole-3-sulfonamide] | 34
7 | COc1nc(NS(=O)(=O)c2c[nH]c3c(-c4ncccn4)c(F)ccc23)nc(OC)c1OC(F)F [Example 29, N-[5-(difluoromethoxy)-4,6-dimethoxy-pyrimidin-2-yl]-6-fluoro-7-(2-pyrimidyl)-1H-indole-3-sulfonamide] | 604
8 | COc1nc(NS(=O)(=O)c2c[nH]c3c(-c4cnn(C)c4)c(Cl)ccc23)nc(OC)c1OC(F)F [Example 113, 6-chloro-N-[5-(difluoromethoxy)-4,6-dimethoxy-pyrimidin-2-yl]-7-(1-methylpyrazol-4-yl)-1H-indole-3-sulfonamide] | 82
9 | COc1nc(NS(=O)(=O)c2c[nH]c3c(-c4ncccc4C)c(Cl)ccc23)nc(OC)c1OCC(F)F [Example 100, 6-chloro-N-[5-(2,2-difluoroethoxy)-4,6-dimethoxy-pyrimidin-2-yl]-7-(3-methyl-2-pyridyl)-1H-indole-3-sulfonamide] | 40
10 | COc1nc(NS(=O)(=O)c2c[nH]c3c(-c4cccnn4)cccc23)nc(OC)c1CC(F)F [Example 11, N-[5-(2,2-difluoroethyl)-4,6-dimethoxy-pyrimidin-2-yl]-7-pyridazin-3-yl-1H-indole-3-sulfonamide] | 50
11 | COc1nc(NS(=O)(=O)c2c[nH]c3c(-c4ncccn4)c(C)ccc23)nc(OC)c1OCCF [Example 56, N-[5-(2-fluoroethoxy)-4,6-dimethoxy-pyrimidin-2-yl]-6-methyl-7-(2-pyrimidyl)-1H-indole-3-sulfonamide] | 129
12 | COc1nc(NS(=O)(=O)c2c[nH]c3c(-c4cscn4)c(Cl)ccc23)nc(OC)c1OC(F)F [Example 120, 6-chloro-N-[5-(difluoromethoxy)-4,6-dimethoxy-pyrimidin-2-yl]-7-thiazol-4-yl-1H-indole-3-sulfonamide] | 149
13 | COc1nc(NS(=O)(=O)c2c[nH]c3c(-c4nnccc4C)cccc23)nc(OC)c1OCC(F)F [Example 13, N-[5-(2,2-difluoroethoxy)-4,6-dimethoxy-pyrimidin-2-yl]-7-(4-methylpyridazin-3-yl)-1H-indole-3-sulfonamide] | 57
14 | COc1nc(NS(=O)(=O)c2c[nH]c3c(-c4nccnc4Cl)c(Cl)ccc23)nc(OC)c1OC(F)F [Example 64, 6-chloro-7-(3-chloropyrazin-2-yl)-N-[5-(difluoromethoxy)-4,6-dimethoxy-pyrimidin-2-yl]-1H-indole-3-sulfonamide] | 35
15 | COc1nc(NS(=O)(=O)c2c[nH]c3c(-c4ncc(F)cn4)c(Cl)ccc23)nc(OC)c1OCC(F)F [Example 105, 6-chloro-N-[5-(2,2-difluoroethoxy)-4,6-dimethoxy-pyrimidin-2-yl]-7-(5-fluoropyrimidin-2-yl)-1H-indole-3-sulfonamide] | 221
16 | COc1nc(NS(=O)(=O)c2c[nH]c3c(-c4cn(C)nn4)c(Cl)ccc23)nc(OC)c1OCC(F)F [Example 101, 6-chloro-N-[5-(2,2-difluoroethoxy)-4,6-dimethoxy-pyrimidin-2-yl]-7-(1-methyltriazol-4-yl)-1H-indole-3-sulfonamide] | 43
17 | COc1nc(NS(=O)(=O)c2c[nH]c3c(-c4cccnn4)c(Br)ccc23)nc(OC)c1CC(F)F [Example 43, 6-bromo-N-[5-(2,2-difluoroethyl)-4,6-dimethoxy-pyrimidin-2-yl]-7-pyridazin-3-yl-1H-indole-3-sulfonamide] | 32
18 | COc1nc(NS(=O)(=O)c2c[nH]c3c(-c4cccc(C)n4)c(Cl)ccc23)nc(OC)c1CC(F)F [Example 93, 6-chloro-N-[5-(2,2-difluoroethyl)-4,6-dimethoxy-pyrimidin-2-yl]-7-(6-methyl-2-pyridyl)-1H-indole-3-sulfonamide] | 24

Further compounds by falling IC50, results first:

Row | IC50 [nM] | Structure (SMILES)
19 | 261 | COc1nc(NS(=O)(=O)c2c[nH]c3c(-c4cnc(Cl)cn4)c(Cl)ccc23)nc(OC)c1OCC(F)F [Example 90, 6-chloro-7-(5-chloropyrazin-2-yl)-N-[5-(2,2-difluoroethoxy)-4,6-dimethoxy-pyrimidin-2-yl]-1H-indole-3-sulfonamide]
20 | 129 | COc1nc(NS(=O)(=O)c2c[nH]c3c(-c4cnccn4)c(F)ccc23)nc(OC)c1OCCF [Example 32, 6-fluoro-N-[5-(2-fluoroethoxy)-4,6-dimethoxy-pyrimidin-2-yl]-7-pyrazin-2-yl-1H-indole-3-sulfonamide]
21 | 120 | COc1nc(NS(=O)(=O)c2c[nH]c3c(-c4ncccn4)c(F)ccc23)nc(OC)c1CC(F)F [Example 27, N-[5-(2,2-difluoroethyl)-4,6-dimethoxy-pyrimidin-2-yl]-6-fluoro-7-(2-pyrimidyl)-1H-indole-3-sulfonamide]
22 | 109 | COc1nc(NS(=O)(=O)c2c[nH]c3c(-c4cccnn4)c(C)ccc23)nc(OC)c1OCC(F)F [Example 57, N-[5-(2,2-difluoroethoxy)-4,6-dimethoxy-pyrimidin-2-yl]-6-methyl-7-pyridazin-3-yl-1H-indole-3-sulfonamide]
23 | 56 | COc1nc(NS(=O)(=O)c2c[nH]c3c(-c4cnn(C)c4)c(Br)ccc23)nc(OC)c1OCC(F)F [Example 69, 6-bromo-N-[5-(2,2-difluoroethoxy)-4,6-dimethoxy-pyrimidin-2-yl]-7-(1-methylpyrazol-4-yl)-1H-indole-3-sulfonamide]
24 | 44 | COc1nc(NS(=O)(=O)c2c[nH]c3c(-c4ncccn4)c(Cl)ccc23)nc(OC)c1C [Example 85, 6-chloro-N-(4,6-dimethoxy-5-methyl-pyrimidin-2-yl)-7-(2-pyrimidyl)-1H-indole-3-sulfonamide]
25 | 32 | COc1nc(NS(=O)(=O)c2c[nH]c3c(-c4cc(C)ncn4)c(Cl)ccc23)nc(OC)c1OCC(F)F [Example 96, 6-chloro-N-[5-(2,2-difluoroethoxy)-4,6-dimethoxy-pyrimidin-2-yl]-7-(6-methylpyrimidin-4-yl)-1H-indole-3-sulfonamide]
26 | 27 | COc1nc(NS(=O)(=O)c2c[nH]c3c(-c4cncc(C)n4)c(Cl)ccc23)nc(OC)c1OCC(F)F [Example 88, 6-chloro-N-[5-(2,2-difluoroethoxy)-4,6-dimethoxy-pyrimidin-2-yl]-7-(6-methylpyrazin-2-yl)-1H-indole-3-sulfonamide]
27 | 18 | COc1nc(NS(=O)(=O)c2c[nH]c3c(-c4ccn(C)n4)c(Cl)ccc23)nc(OC)c1OCCF [Example 68, 6-chloro-N-[5-(2-fluoroethoxy)-4,6-dimethoxy-pyrimidin-2-yl]-7-(1-methylpyrazol-3-yl)-1H-indole-3-sulfonamide]
28 | 17 | COc1nc(NS(=O)(=O)c2c[nH]c3c(-c4cnccn4)c(Br)ccc23)nc(OC)c1CC(F)F [Example 39, 6-bromo-N-[5-(2,2-difluoroethyl)-4,6-dimethoxy-pyrimidin-2-yl]-7-pyrazin-2-yl-1H-indole-3-sulfonamide]
